Results on 1 compound are retold here after patent US7091038B2, “Ecdysone receptor-based inducible gene expression system” (RheoGene, Inc., priority 2000, dated 2006).

For data set [1], the system named is GAL4RXR + VP16CfEcR. As to the kind of experiment: Transactivation of reporter gene through switch 1.3 in CHO cells. The format is cell-based, Mus musculus; Choristoneura fumiferana. Particulars: switch 1.3, pGAL4RELuc. As for the experimental part:
(§1) The cells were harvested and reporter activity was assayed.
(§2) Cells were harvested 24–48 hr after adding ligands. […] Twenty μl of lysate was assayed.

The next data set relates to VP16CfEcR. Description: Transactivation of reporter gene through switch 1.7 in CHO cells. The format is cell-based, Choristoneura fumiferana. Particulars: switch 1.7, pEcRELuc. As for the experimental part:
Six ecdysone response elements (“EcRE”; SEQ ID NO: 55) from the hsp27 gene were placed upstream of the promoter and a luciferase gene (SEQ ID NO: 66). This switch most probably uses endogenous RXR.
as §1, §2
For orientation: In a reporter assay the amount or activity of a reporter protein is the signal.

Data set [2] relates to GAL4RXR + VP16CfEcR. As to the kind of experiment: Transactivation of reporter gene through switch 1.3 in 3T3 cells. An excerpt:
In various cellular backgrounds, including mammalian cells, insect ecdysone receptor (EcR) heterodimerizes with retinoid X receptor (RXR) and, upon binding of ligand, transactivates genes under the control of ecdysone response elements. […] The prepared receptor constructs comprise a ligand binding domain of EcR and of RXR or of USP; a DNA binding domain of GAL4 or of EcR; and an activation domain of VP16. The reporter constructs include a reporter gene, luciferase or LacZ, operably linked to a synthetic promoter construct that comprises either GAL4 or EcR/USP binding sites (response elements). Various combinations of these receptor and reporter constructs were cotransfected into CHO, NIH3T3, CV1 and 293 cells.
The same procedures described for CHO cells were followed for 3T3 cells as well with two modifications. The cells were plated when they reached 50% confluency. 125,000 or 50,000 or 25,000 cells were plated per well of 6- or 12- or 24-well plates respectively. […] The ligand treatments were performed as described in the CHO cell section above.

For a further data set, the target named is T1, GAL4RXR + VP16DmEcR (Drosophila melanogaster, UniProt P34021).
T1 sequence (P34021 254-878): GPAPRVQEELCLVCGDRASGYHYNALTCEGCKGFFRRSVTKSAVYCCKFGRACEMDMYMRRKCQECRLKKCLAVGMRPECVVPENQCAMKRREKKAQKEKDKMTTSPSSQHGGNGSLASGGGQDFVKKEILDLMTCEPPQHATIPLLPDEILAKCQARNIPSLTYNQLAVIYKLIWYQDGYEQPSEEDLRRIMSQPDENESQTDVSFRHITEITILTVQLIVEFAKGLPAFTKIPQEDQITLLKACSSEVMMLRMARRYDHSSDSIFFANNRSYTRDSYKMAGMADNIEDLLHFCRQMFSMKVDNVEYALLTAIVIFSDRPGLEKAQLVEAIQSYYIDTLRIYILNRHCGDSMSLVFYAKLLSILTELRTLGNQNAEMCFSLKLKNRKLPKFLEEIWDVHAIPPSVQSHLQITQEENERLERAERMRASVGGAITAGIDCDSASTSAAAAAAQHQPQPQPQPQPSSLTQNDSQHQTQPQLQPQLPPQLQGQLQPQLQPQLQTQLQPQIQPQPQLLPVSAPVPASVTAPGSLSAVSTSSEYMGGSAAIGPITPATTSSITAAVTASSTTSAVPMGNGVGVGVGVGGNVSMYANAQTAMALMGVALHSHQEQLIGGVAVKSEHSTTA
T1 sequence (P28700 206-467 partner limits assumed): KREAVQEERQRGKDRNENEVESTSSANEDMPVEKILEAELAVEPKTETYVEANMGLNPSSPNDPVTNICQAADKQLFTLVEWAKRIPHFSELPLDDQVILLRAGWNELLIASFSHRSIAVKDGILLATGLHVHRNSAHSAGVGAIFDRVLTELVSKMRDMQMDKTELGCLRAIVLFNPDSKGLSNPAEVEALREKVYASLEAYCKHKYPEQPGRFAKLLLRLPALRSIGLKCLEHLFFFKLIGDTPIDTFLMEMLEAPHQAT
As to the kind of experiment: Transactivation of reporter gene through switch 1.4 in 293 cells. The format is cell-based, Mus musculus; Drosophila melanogaster. Particulars: switch 1.4, pGAL4RELuc. As for the experimental part: This construct was prepared in the same way as switch 1.3 except CfEcRCDEF was replaced with DmEcRCDEF (SEQ ID NO: 6).
as §1
The same procedures described for CHO were followed for 293 cells except that the cells were plated in biocoated plates to avoid clumping.
as §2

The test system of the next data set is GAL4EcR + VP16USP. As to the kind of experiment: Transactivation of reporter gene through switch 1.2 in CV1 cells. The format is cell-based, Choristoneura fumiferana. Particulars: switch 1.2, pGAL4RELuc. The procedure: This construct was prepared in the same way as in switch 1.1 above except MmRXRDEF was replaced with the D, E and F domains from spruce budworm USP (“CfUSPDEF”; SEQ ID NO: 67). The constructs used in this example are similar to those disclosed in U.S. Pat. No. 5,880,333 except that Choristoneura fumiferana USP rather than Drosophila melanogaster USP was utilized.
as §1
(§3) The cells were plated when they reached 50% confluency.
(§4) The same procedures described for NIH3T3 cells were followed for CV1 cells
as §2

A further data set deals with GAL4CfEcRVP16. Description: Transactivation of reporter gene through switch 1.6 in CV1 cells. The format is cell-based, Choristoneura fumiferana. Particulars: switch 1.6, pGAL4RELuc. The procedure:
This construct was prepared so that both the GAL4 DNABD and the VP16AD were placed on the same molecule. GAL4DNABD (SEQ ID NO: 43) and VP16AD (SEQ ID NO: 49) were fused to CfEcRDEF (SEQ ID NO: 3) at N-and C-termini respectively.
as §1, §3, §4, §2

`CCc1c(OC)cccc1C(=O)NN(C(=O)c1cc(C)cc(C)c1)C(C)(C)C` [N-(2-ethyl-3-methoxybenzoyl)-N′-(3,5-dimethylbenzoyl)-N′-t-butylhydrazine]: the “Mean Fold Activation with 50 μM N-(2-ethyl-3-methoxybenzoyl)-N′-(3,5-dimethylbenzoyl)-N′-t-butylhydrazine” value with GAL4RXR + VP16CfEcR [1] worked out at 85 fold; with VP16CfEcR, 36 fold. Moreover, the “Mean Fold Induction at 1.0 μM Concentration” value in the data set with GAL4RXR + VP16CfEcR [2] (GAL4MmRXRDEF/VP16CfEcRCDEF (switch 1.3), 1.0 μM ligand) came out at 71 fold. The “Mean Fold Activation Through N-(2-ethyl-3-methoxybenzoyl)-N′-(3,5-dimethylbenzoyl)-N′-t-butylhydrazine” value is recorded as 47 fold in the data set on GAL4RXR + VP16CfEcR [2] (switch 1.3, pGAL4RELuc); 3 fold at GAL4RXR + VP16DmEcR; 2 fold in the data set with GAL4EcR + VP16USP; 6 fold in the data set with GAL4CfEcRVP16.
